Reference: patent US11155586B2, “Cystine knot scaffold platform” (Genentech, Inc., priority 2015, dated 2021)
Positions of bridges follow the written chain, without caps; N, C: chain ends. Residues, ends and D or L forms follow the SMILES beside them.

Key:
trypsin = assay: Trypsin protease activity, peptide substrate cleavage assay; assay type: biochemical; settings: FIG. 3
rat VEGF-A = target: T1, rat VEGF-A (Rattus norvegicus, UniProt P16612); assay: SPR binding assay; settings: for ka / kd: rat, Table 30
T1 sequence (P16612 27-139 limits assumed): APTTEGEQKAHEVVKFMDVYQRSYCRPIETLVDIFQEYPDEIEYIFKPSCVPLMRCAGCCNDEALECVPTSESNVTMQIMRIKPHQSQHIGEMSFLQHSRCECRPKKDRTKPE
Protocol: (§1) Depending on the format of the assay either a streptavidin sensor (SA) or a dextran-coated (CM5) sensor was utilized as described below.
(§2) For use with the SA sensor, VEGF-A was first biotinylated (no more than 2 biotin/VEGF-A) by incubating the protein with EZ-link NHS-PEG4-Biotin (Pierce) in a 1:1.5 molar ratio respectively, in PBS for 2 hours on ice. Reaction was then quenched by addition of 10 molar excess of Glycine pH 8.0 and the sample was buffer exchanged into PBS using an Amicon 0.5 mL 3000 MWCO ultra-centrifugal filters (EMD Millipore). The biotinylation state of the protein was verified by LC-MS analysis. Biotinylated VEGF-A was then captured on the surface until a resonance unit (RU) signal of about ˜400. For immobilization of VEGF-A on CM5 sensor, the surface was first activated with a mixture of N-ethyl-N′-(3-dimethylaminopropyl)carbodiimide hydrochloride and N-hydroxysuccinimide (EDC/NHS) according to the supplier instructions. VEGF-A was then diluted into coupling buffer (0.1 M Acetate Buffer, pH 5.0) and injected until the signal reached about ˜400 RU followed by a wash with 1 M ethanolamine pH 8.0 to quench remaining activated sites.
(§3) Following the capture step, a series of the peptide concentrations were prepared in HBS-EP buffer with matching DMSO concentrations to 0.1% and injected at a flow rate of […]. The resulting sensorgrams were then analyzed using a 1:1 binding model to obtain kinetic data and affinities using Scrubber 2.0 (BioLogic Software).

rabbit VEGF-A = target: T2, rabbit VEGF-A (Oryctolagus cuniculus, UniProt G1T1L9); assay: SPR binding assay; settings: for ka / kd: rabbit, Table 30
T2 sequence (G1T1L9 1-398): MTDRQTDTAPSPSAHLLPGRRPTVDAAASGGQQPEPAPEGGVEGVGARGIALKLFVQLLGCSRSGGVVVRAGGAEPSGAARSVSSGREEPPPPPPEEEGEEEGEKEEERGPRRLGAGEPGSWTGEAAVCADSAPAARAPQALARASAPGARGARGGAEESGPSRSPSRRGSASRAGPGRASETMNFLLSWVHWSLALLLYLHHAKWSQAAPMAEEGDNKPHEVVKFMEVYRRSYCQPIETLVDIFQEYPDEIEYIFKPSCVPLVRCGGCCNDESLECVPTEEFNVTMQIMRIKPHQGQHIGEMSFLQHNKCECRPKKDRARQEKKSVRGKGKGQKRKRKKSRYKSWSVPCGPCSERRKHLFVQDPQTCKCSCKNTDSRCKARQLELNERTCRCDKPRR
Protocol: as §1, §2, §3

VEGF human 165 = target: T3, VEGF human 165 (Homo sapiens, UniProt P15692); assay: SPR binding assay; settings: for ka / kd: human 165, Table 30
T3 sequence (P15692 27-191 isoform P15692-4): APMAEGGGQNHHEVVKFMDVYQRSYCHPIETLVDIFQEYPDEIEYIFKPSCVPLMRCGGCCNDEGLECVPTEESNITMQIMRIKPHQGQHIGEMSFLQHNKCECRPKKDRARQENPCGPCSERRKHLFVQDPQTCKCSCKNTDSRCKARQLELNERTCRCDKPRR
Protocol: as §1, §2, §3

VEGF mouse 164 = target: T4, VEGF mouse 164 (Mus musculus, UniProt Q00731); assay: SPR binding assay; settings: for ka / kd: mouse 164, Table 30
T4 sequence (Q00731 27-190 isoform Q00731-2): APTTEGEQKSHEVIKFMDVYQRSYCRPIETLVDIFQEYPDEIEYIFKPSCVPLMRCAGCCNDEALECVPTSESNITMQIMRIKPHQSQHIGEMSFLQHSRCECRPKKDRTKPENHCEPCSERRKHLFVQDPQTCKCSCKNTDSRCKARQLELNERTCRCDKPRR
Protocol: as §1, §2, §3

[1] = tested on: hVEGF-A mutants (Y21A, K48A, Q89A, F17A/M81A); assay: SPR binding assay, hVEGF-A mutants; set-up: species or system human; kd: unit not given here
Protocol: as §1, §2, §3
The binding interface of VEGF_CKP9.54.90 on VEGF-A overlaps with that of the natural receptors and G6.31 antibody (FIGS. 7 and 8). […] However, K48A mutation enhanced the binding of VEGF_CKP9.54.90 by ˜2-3 fold, a behavior that is similar to that observed with the G6.31 antibody (Fuh et al. (2006) J. Biol. Chem. 281, 6625-6631).

hVEGF-A (8-109) = target: T5, hVEGF-A (8-109) (Homo sapiens, UniProt P15692); assay: SPR binding assay (BIACORE 3000, 37° C.)
T5 sequence (P15692 34-135 isoform P15692-4): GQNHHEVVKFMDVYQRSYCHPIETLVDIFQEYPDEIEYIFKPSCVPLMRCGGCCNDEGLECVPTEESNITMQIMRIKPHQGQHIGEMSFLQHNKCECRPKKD
In short: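 VEGF-A, biotinylated and captured on streptavidin sensor or amine-coupled to CM5 at pH 5.0, to about 400 RU. Peptide concentration series in HBS-EP with 0.1% DMSO injected at […]; kinetics and affinities from 1:1 binding model fits.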

VEGF-A and KDR = target: T6, VEGF-A and KDR (Homo sapiens, UniProt P15692); assay: Competition ELISA, KDR-VEGF interaction; assay type: binding
T6 sequence (P15692 207-395): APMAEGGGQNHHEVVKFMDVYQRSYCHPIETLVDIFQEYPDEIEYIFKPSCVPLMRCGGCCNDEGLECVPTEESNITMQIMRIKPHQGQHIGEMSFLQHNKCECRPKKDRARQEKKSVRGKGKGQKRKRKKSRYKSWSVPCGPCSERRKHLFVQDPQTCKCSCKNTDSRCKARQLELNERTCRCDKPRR
Protocol: Binding specificity of each peptide was established by competition ELISA. […] After blocking with block buffer (PBS with 0.5% BSA and 0.05% TWEEN®20) for 2 hours at room temperature, the receptor-Fc fusions or biotinylated receptors were serially diluted using assay buffer (PBS with 0.5% BSA and 0.05% TWEEN®20) and incubated for 1 hour at room temperature. […] Competition ELISA was conducted in an identical fashion as described above except after blocking, a mixture of serially diluted peptide containing a constant concentration of receptor-Fc fusion or biotinylated receptor (concentration of receptor was set to EC60) was added and incubated for 1 hour. All recombinant human proteins and antibodies were purchased from R &D Systems (Minneapolis, Minn.).

[2] = KD, Table 37, surface plasmon resonance, VEGF-A
[3] = Table 37, surface plasmon resonance, VEGF-A

Row | Compound | inhibition of trypsin protease activity (trypsin) | Kd (rat VEGF-A) [nM] | ka (rat VEGF-A) | kd (rat VEGF-A) | Kd (rabbit VEGF-A) [nM] | ka (rabbit VEGF-A) | kd (rabbit VEGF-A) | Kd (VEGF human 165) [nM] | ka (VEGF human 165) | kd (VEGF human 165) | Kd (VEGF mouse 164) [nM] | ka (VEGF mouse 164) | kd (VEGF mouse 164) | Kd ([1]; hVEGF-A mutant K48A) [nM] | ka ([1]; hVEGF-A mutant K48A) | kd ([1]; hVEGF-A mutant K48A) | Kd ([1]; hVEGF-A mutant Q89A) [nM] | ka ([1]; hVEGF-A mutant Q89A) | kd ([1]; hVEGF-A mutant Q89A) | Kd ([1]; hVEGF-A mutant Y21A) [nM] | also measured
1 | CC[C@H](C)[C@@H]1NC(=O)[C@H](CC(N)=O)NC(=O)[C@@H](NC(=O)CN)CSSC[C@@H](C(=O)N[C@H](C(=O)N[C@H]2CSSC[C@@H](C(=O)NCC(=O)O)NC(=O)[C@H](CO)NC(=O)[C@H](CCC(N)=O)NC(=O)[C@H](Cc3ccc(O)cc3)NC(=O)[C@H](Cc3ccc(O)cc3)NC(=O)[C@H](CCC(N)=O)NC2=O)C(C)C)NC(=O)CNC(=O)[C@H](C)NC(=O)[C@H](CC(C)C)NC(=O)[C@@H]2CSSC[C@H](NC(=O)CNC(=O)[C@H](Cc3c[nH]c4ccccc34)NC(=O)[C@H](Cc3ccccc3)NC(=O)[C@@H]3CCCN3C(=O)[C@H](CC(C)C)NC(=O)[C@H](CCSC)NC1=O)C(=O)NCC(=O)N[C@@H](CCCNC(=N)N)C(=O)N[C@@H](CC(=O)O)C(=O)N[C@@H](Cc1ccccc1)C(=O)N[C@@H](CCC(=O)O)C(=O)N2 [VEGF_CKP9.54.90] (H-GCNIMLPFWGCGRDFECLAGCVCQYYQSCG-OH; disulfide 2-21, 11-17, 23-29; N-terminus and C-terminus assumed) | do not inhibit | 0.9 | 1.72 × 10^7 | 1.35 × 10^−2 | 1.14 | 5.15 × 10^7 | 6.75 × 10^−2 | 0.89 | 1.58 × 10^7 | 1.33 × 10^−2 | 1.31 | 8.71 × 10^6 | 1.01 × 10^−2 | 0.19 | 6.04 × 10^7 | 0.0116 | 8.8 | 1.71 × 10^7 | 0.1458 | 3.5 | binding to VEGF-A mutant F17A/M81A ([1]; F17A/M81A, relative to wild type VEGF-A): reduced binding; enhancement of binding by K48A mutation ([1]; K48A, relative to wild type VEGF-A): 2-3 fold; binding to VEGF-A mutant Q89A ([1]; Q89A, relative to wild type VEGF-A): reduced binding; binding to VEGF-A mutant Y21A ([1]; Y21A, relative to wild type VEGF-A): reduced binding; ka ([1]; hVEGF-A mutant Y21A): 3.72 × 10^7; kd ([1]; hVEGF-A mutant Y21A): 0.1202; Kd (hVEGF-A (8-109); KD (nM), hVEGF-A WT): 0.37 nM; Kd (hVEGF-A (8-109); KD (nM), human 8-109, Table 30): 0.87 nM; Kd (hVEGF-A (8-109); [2]): 0.4 ± 0.08 nM; kd (hVEGF-A (8-109); [3]): 0.17; kd (hVEGF-A (8-109); hVEGF-A WT): 0.0300; kd (hVEGF-A (8-109); human 8-109, Table 30): 4.05 × 10^−2; IC50 (VEGF-A and KDR): 0.2 nM; disruption of the interaction between VEGF-A and KDR (VEGF-A and KDR; FIGS. 2A and 2B): disrupts
2 | CC[C@H](C)[C@@H]1NC(=O)[C@H](CC(N)=O)NC(=O)[C@@H](NC(=O)CN)CSSC[C@@H](C(=O)N[C@H](C(=O)N[C@H]2CSSC[C@@H](C(=O)NCC(=O)O)NC(=O)[C@H](CO)NC(=O)[C@H](CCC(N)=O)NC(=O)[C@H](Cc3ccc(O)cc3)NC(=O)[C@H](Cc3ccc(O)cc3)NC(=O)[C@H](CCC(N)=O)NC2=O)C(C)C)NC(=O)CNC(=O)[C@H](C)NC(=O)[C@H](CC(C)C)NC(=O)[C@@H]2CSSC[C@H](NC(=O)CNC(=O)[C@H](Cc3c[nH]c4ccccc34)NC(=O)[C@H](Cc3ccccc3)NC(=O)[C@@H]3CCCN3C(=O)[C@H](CC(C)C)NC(=O)[C@H](CCSC)NC1=O)C(=O)N[C@@H](CCCCN)C(=O)N[C@@H](CCC(N)=O)C(=O)N[C@@H](CC(=O)O)C(=O)N[C@@H](CO)C(=O)N[C@@H](CC(=O)O)C(=O)N2 [VEGF_CKP9.54] (H-GCNIMLPFWGCKQDSDCLAGCVCQYYQSCG-OH; disulfide 2-21, 11-17, 23-29 (inferred); N-terminus and C-terminus assumed) | do not inhibit | 176 | 1.93 × 10^6 | 2.96 × 10^−1 | 133 | 2.10 × 10^6 | 2.74 × 10^−1 | 190 | 8.23 × 10^5 | 1.49 × 10^−1 | 250 | 8.26 × 10^5 | 2.07 × 10^−1 | 22 | 2.64 × 10^6 | 0.0587 | 1880 | 3.37 × 10^5 | 0.7932 | 317 | ka ([1]; hVEGF-A mutant Y21A): 6.63 × 10^5; kd ([1]; hVEGF-A mutant Y21A): 0.2101; Kd (hVEGF-A (8-109); KD (nM), hVEGF-A WT): 55 nM; Kd (hVEGF-A (8-109); KD (nM), human 8-109, Table 30): 176 nM; Kd (hVEGF-A (8-109); [2]): 44 ± 6 nM; kd (hVEGF-A (8-109); [3]): 2.3; kd (hVEGF-A (8-109); hVEGF-A WT): 0.2349; kd (hVEGF-A (8-109); human 8-109, Table 30): 2.18 × 10^−1; IC50 (VEGF-A and KDR): 5.8 nM
